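Cells were grown in 96-well plates and exposed to each compound for 48 hours at five concentrations; endpoints were interpolated linearly between bracketing concentrations, or set to the highest concentration if not reached. Here, GI50 denotes the concentration required for 50% inhibition of growth. TGI marks complete inhibition of growth.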 Where only a bound is given, the exact number is not on record here.

Consider 20 molecules from PubChem BioAssay (NCI).

Test in all cases: inhibition of tumour cell growth, NCI panel, 48 h
Test [1] relates to BT-549 breast.
Test [2] concerns U251 CNS.
Test [3] has as its system MALME-3M melanoma.
Test [4] concerns 786-0 renal.
In test [5] the test system is KM12 colon.
Test [6] deals with UACC-62 melanoma.
Test [7] relates to PC-3 prostate.
The test system of test [8] is MDA-MB-435.
For test [9], the system named is HOP-62 NSCLC.
The subject of test [10] is NCI-H23 lung.

With `COc1cccc(/C=N/n2c(Cc3ccc(Cl)cc3)n[nH]c2=O)c1`, the TGI was 57.1 µM in [1]; 55.2 µM in [2]; over 100 µM in test [3]; over 71.9 µM in test [4]; over 100 µM in [5]; over 82.9 µM in test [6]. The TGI in [7] was over 100 µM; in test [8], over 100 µM; in test [9], 43.9 µM; in test [10], over 70.3 µM.

For the molecule `Cc1nc2ccccc2cc1C[N+]12CN3CN(CN(C3)C1)C2`, the TGI in test [1] turned out to be 40 µM; in test [2], 28.2 µM; in test [3] it was 32 µM; in test [4] it was 37.8 µM; in test [5] it was 45.8 µM; in [6], 33.1 µM. Further, the TGI turned out to be 34.3 µM in test [7], 49.3 µM in [8], 69.9 µM in [9] and 33.9 µM in [10].

`CN1CCN(c2c(O)c3c(c(O)c2Cl)C(=O)C=CC3=O)CC1`: the TGI in test [1] stood at 1.27 µM; in test [2] it was 4.07 µM; in test [3], 0.448 µM; in test [4] it was 0.718 µM; in test [5] it was 3.93 µM; in test [6], 2.82 µM. In addition, the TGI was 3.27 µM in [7], 0.538 µM in test [8], 3.36 µM in [9] and 1.54 µM in test [10].

For `COc1cnnc2c(C)c(-c3ccccc3)nn12`, the TGI in test [1], in [2], in test [3], in test [4], in test [5] and in test [6] was over 100 µM throughout. The TGI in test [7], in test [8], in test [9] and in [10] was over 100 µM each time.

Regarding `O=[N+]([O-])c1cc(Cl)ccc1S(=O)(=O)c1cc(Cl)cc2c1NCCC2`, the TGI in test [1] is over 100 µM; in [3], over 100 µM; in test [4], over 100 µM; in [5], over 100 µM; in test [6] it was 85.8 µM; in test [7] it was over 100 µM. Moreover, the TGI in test [8] and in test [9] was over 100 µM throughout.

For the molecule `Cc1nc(N)nc(N)c1N1CCN(Cc2ccccc2)CC1`, the TGI in test [1] was over 100 µM; in test [2], over 100 µM; in test [3], over 69 µM; in [4], over 100 µM; in test [5] it was over 100 µM; in [6], over 100 µM. The TGI in test [7], in [8], in test [9] and in test [10] was over 100 µM in each case.

Consider `Nc1ccc(-c2nc3cc(F)ccc3s2)cc1`, for which the TGI in test [1] was over 100 µM; in test [2], over 80 µM; in test [3], over 100 µM; in [4], over 100 µM; in test [5] it was over 100 µM; in test [6] it was over 100 µM. For the same molecule, the TGI was 45.8 µM in [7], over 100 µM in [8], 39.2 µM in [9] and over 46.5 µM in [10].

For the molecule `Cc1ccsc1/C=N/Nc1ccccn1`, the TGI in test [1], in test [2], in test [3], in test [4], in test [5] and in [6] was over 100 µM each time. The TGI in test [7], in [8], in [9] and in [10] was over 100 µM each time.

`O=C(NC(CO)CO)c1ccc2cc(C(=O)N3CC(CCl)c4ccc([N+](=O)[O-])cc43)[nH]c2c1` (stereo not given): the TGI in test [1], in test [2], in test [3], in [4], in test [5] and in test [6] was over 100 µM in each case. The TGI in [7], in test [8], in test [9] and in [10] was over 100 µM throughout.

As to `C/C(=N\NC(=O)N/N=C(\C)c1ccccn1)c1ccccn1`, the TGI was 18.2 µM in test [1]; over 100 µM in [2]; over 100 µM in test [3]; over 51.5 µM in test [4]; over 100 µM in test [5]; over 100 µM in test [6]. Besides, the TGI in [7], in [8] and in test [9] was over 100 µM in each case.

Turning to `O=C1C(CN2CCCC2)CCCC1CN1CCCC1` (stereo not given), the TGI in [1] came to 3.62 µM; in test [2], 41.3 µM; in [3] it was 1.27 µM; in test [4], 2.42 µM; in test [5] it was 39.8 µM; in test [6] it was 31.9 µM. The TGI in test [7] is 32.3 µM; in test [8], 7.43 µM; in [9], over 71.1 µM; in [10], 4.27 µM.

For `CC(C)C(/C=C/c1ccccc1)=N\NC(=S)NN`, the TGI in test [1], in test [2], in test [3], in [4], in test [5] and in test [6] was over 100 µM each time. Besides, the TGI in test [7], in test [8], in test [9] and in [10] was over 100 µM each time.

As for `CC(=O)C(C(=O)C(C)(C)C)C(=O)C(C)(C)C`, the TGI in test [1], in [2], in test [3], in test [4], in [5] and in test [6] was over 100 µM each time. Besides, the TGI in [7], in test [8] and in [9] was over 100 µM in each case.

With `COc1cc(C2c3cc4c(cc3OC(N3CCOCC3)C2C)OCO4)cc(OC)c1OC(C)=O` (stereo not given), the TGI in test [1] was over 100 µM; in [2], over 80.9 µM; in test [3], over 85.7 µM; in test [4] it was over 100 µM; in test [5], over 100 µM; in test [6] it was over 84.5 µM. The TGI is over 100 µM in [7], 14.4 µM in test [8], over 95.5 µM in [9] and over 95.2 µM in [10].

For `O=C1CC(Cl)c2c(Cl)sc(Cl)c21` (stereo not given), the TGI in test [1] stood at 13.3 µM; in test [3], 6.63 µM; in test [4], 2.82 µM; in test [5], 4.03 µM; in test [6], 4.66 µM; in test [7], 5.64 µM. The TGI in test [8] turned out to be 6.34 µM; in test [9], 18.6 µM; in test [10], 9.32 µM.

For the molecule `O=Cc1cc(O)c(O)c(/C=N/n2c3ccccc3c3ccccc32)c1`, the TGI in test [1] was determined as 12.4 µM; in [2], 45.5 µM; in [3], 30.8 µM; in test [4], 20.7 µM; in [5] it was 84.3 µM; in test [6], 22.9 µM. The TGI in [7] was found to be 28.7 µM; in [8], 28.3 µM; in test [9], 28 µM; in test [10], 34.7 µM.

With `CC(C)(C)OC(=O)N1C/C=C\C(=O)C2(OCCO2)c2ccccc21`, the TGI in [1] is 51.4 µM; in test [2], over 100 µM; in [3], 48.1 µM; in test [4] it was 56.9 µM; in [5], over 100 µM; in [7], over 100 µM. Further, the TGI in [8] is 34 µM; in [9], over 100 µM; in test [10], over 100 µM.

In the case of `C=CCc1cccc2cc(C(=O)Nc3nc(C45CC6CC(CC(C6)C4)C5)cs3)c(=O)oc12`, the TGI in [1] is over 100 µM; in [2], 41.9 µM; in [3] it was over 100 µM; in test [4], 54.6 µM; in test [5] it was over 100 µM; in [7], over 100 µM. Besides, the figures for the TGI in test [8], in test [9] and in test [10] were over 100 µM, 36.3 µM and 59.2 µM, respectively.

Take `Cn1c(=O)c2[nH]c(-n3nc(-c4ccccc4)cc3N)nc2n(C)c1=O`: the TGI in test [1] is over 100 µM; in test [2] it was over 100 µM; in test [3], 47 µM; in test [4], over 100 µM; in [5], over 100 µM; in test [6], 27 µM. The TGI in test [7], in [8] and in [9] was over 100 µM each time.

In the case of `COC1CCC(n2c([C@@H]3CCCC(=O)N3c3ccc(F)c(F)c3)nc3cc(-c4c(C)noc4C)ccc32)CC1` (stereo not given in full), the GI50 in test [1] was 10.3 µM; in [2], 10.2 µM; in test [3] it was 1.74 µM; in test [5], 14 µM; in [6], 2.52 µM; in test [7], 3.5 µM. Further, the GI50 was 8.01 µM in test [8], 4.46 µM in [9] and 13.3 µM in [10]. Further, the TGI in [1] was 27.2 µM; in [2], 23.8 µM; in [3] it was 17.7 µM; in test [5] it was 30.4 µM; in [6] it was 16.1 µM; in [7] it was 44.1 µM. Also, the TGI in test [8] is 82.7 µM; in test [9], over 100 µM; in [10], 40.5 µM.
